# Measurements reported in patent US11793790B2, “Compositions against Candida infections” (Katholieke Universiteit Leuven, priority 2017, dated 2023).
# Assays:
# [1] = tested on: C. albicans biofilm cells; experiment: Kinetic PI (propidium iodide) fluorescence assay on biofilms; type: cell-based, Candida albicans
# [2] = cited from earlier work
# C. albicans biofilms = experiment: Biofilm checkerboard assay (CTB metabolic activity, BEC-2, FICI); conditions: for BEC-2 MCZ: 24 h
# [3] = tested on: C. glabrata biofilms (strain BG2); experiment: Biofilm checkerboard assay with CFU determination (Example 9); type: cell-based, Candida glabrata; conditions: on its own or in combination with DB
# Experimental: After 1 h of adhesion at 37° C., the medium was aspirated and biofilms were washed with 100 μL PBS to remove non-adherent cells, followed by the addition of 100 μL RPMI 1640 medium. Biofilms were allowed to grow for 24 h at 37° C. To determine possible potentiation of MCZ by DB, a checkerboard assay was used. […] After 38 h of incubation at 37° C., CFU determination was performed on treated biofilms. […] Serial dilutions (10^−2, 10^−3 and 10^−4) were plated on YPD agar plates, followed by an incubation period of 24 h at 37° C. and subsequent colony counting.
# [4] = tested on: planktonic C. glabrata cultures (strain BG2); experiment: Checkerboard assay with determination of the MIC; type: cell-based, Candida glabrata
# Experimental: A C. glabrata BG2 overnight culture, grown in YPD, was diluted to an optical density of 0.1 (approximately 10^6 cells/mL) in RPMI medium, preheated at 37° C. 90 μL of the cell suspension was added to the wells of a 96 well plate, containing 10 μL of a combination of MCZ and DB, two fold diluted across rows and columns respectively (DMSO background 2%). After both 24 h and 48 h of incubation at 37° C., absorbance was measured at 490 nm by a multimode reader (Synergy Mx multi-mode microplate reader, BioTek, USA).
# Domiphen bromide (DB) is a potentiator of miconazole against C. glabrata biofilms. […] MIC values were determined using Graphpad Prism 6 (table 8).
# [5] = single treatment at 50 μM, 5-10 h after treatment
molecule,measurement,setting,value
"Clc1ccc(COC(Cn2ccnc2)c2ccc(Cl)cc2Cl)c(Cl)c1 (racemic) [Miconazole, (RS)-1-[2-(2,4-dichlorofenyl)-2-[(2,4-dichlorofenyl)methoxy]ethyl] imidazole]",PI fluorescence,"[1]; single treatment 150 μM, after 16 h of treatment",slight increase
same,solubility in water,[2],insoluble in water
same,BEC-2 MCZ,C. albicans biofilms; 0 μM DB (MCZ alone),230 µM
same,BEC-2 MCZ,C. albicans biofilms; in combination with 1.56 μM DB,150 µM
same,BEC-2 MCZ,C. albicans biofilms; in combination with 3.125 μM DB,100 µM
same,BEC-2 MCZ,C. albicans biofilms; in combination with 6.25 μM DB,55 µM
same,BEC-2 MCZ,C. albicans biofilms; in combination with 12.5 μM DB,30 µM
same,BEC-2 MCZ,C. albicans biofilms; in combination with 25 μM DB,1 µM
CC[C@@H]([C@H](C)O)n1ncn(-c2ccc(N3CCN(c4ccc(OC[C@@H]5CO[C@@](Cn6cncn6)(c6ccc(F)cc6F)C5)cc4)CC3)cc2)c1=O [Posaconazole],antibiofilm activity against C. glabrata biofilms,[3],no significant antibiofilm activity
"CCCCCCCCCCCC[N+](C)(C)CCOc1ccccc1 [domiphen bromide, N,N-dimetyl-N-(2-phenoxyetyl)-, bromide]",PI fluorescence,[1]; [5],slight increase
same,solubility in water,[2],highly soluble in water
Clc1ccc(COC(Cn2ccnc2)c2ccc(Cl)cc2Cl)c(Cl)c1 (stereo not drawn) [miconazole nitrate],solubility in water,[2],insoluble in water
CC[N+](CC)(CC)CC.[Br-] [tetraethylammonium bromide],FICI with Miconazole,C. albicans biofilms; quaternary ammonium compound combined with Miconazole,> 0.5
benzalkonium chloride,PI fluorescence,[1]; [5],slight increase
same,potentiation of MCZ against planktonic C. glabrata cultures,[4],could not potentiate MCZ
